Reference: US7754896B2, “Indol-alanine derivatives as selective S1P4-agonists” (Novartis AG, priority 2004, dated 2010)

Molecular target: T1, S1P4 (Homo sapiens, UniProt O95977)
T1 construct: expressed in transfected cells
T1 sequence (O95977 1-384): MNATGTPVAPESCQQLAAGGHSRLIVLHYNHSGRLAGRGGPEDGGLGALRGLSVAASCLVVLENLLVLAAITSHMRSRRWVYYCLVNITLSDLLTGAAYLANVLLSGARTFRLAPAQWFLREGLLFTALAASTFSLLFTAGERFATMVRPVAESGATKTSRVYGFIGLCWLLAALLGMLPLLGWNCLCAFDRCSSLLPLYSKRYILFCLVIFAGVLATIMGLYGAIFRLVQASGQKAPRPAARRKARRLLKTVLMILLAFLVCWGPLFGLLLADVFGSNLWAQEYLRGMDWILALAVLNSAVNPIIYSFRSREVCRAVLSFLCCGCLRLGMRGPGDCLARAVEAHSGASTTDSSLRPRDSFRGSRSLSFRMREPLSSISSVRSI
Experiment: GTPγS binding assay, S1P4
Assay type: biochemical
Conditions: CHO cells expressing S1P4
Procedure: An expression vector for the human S1P4 gene (HSEDG4; GenBank Accession Number AJ000479) fused to the c-myc peptide tag at the C-terminus is obtained as described in Van Brocklyn et al. 2000, Blood 95(8), 2624. The encoding DNA for the S1P4-myc fusion protein is cloned in the mammalian expression vector pRc/CMV (Invitrogen), which confers G418 resistance for the selection of stable mammalian cells. The DNA sequence of the S1P4 insert is determined on both strands. […] The S1P4-myc cDNA is inserted into the pRc/CMV vector using HindIII/XbaI.
To develop stable cell lines expressing the c-myc tagged S1P4 receptor 5 μg of plasmid pRc/CMV myc-S1P4 is cut using restriction endonuclease PvuI, which cleaves the plasmid once. The linearized plasmid is then precipitated using a final concentration of 0.3M sodium acetate, pH5.0 and 66% ethanol. After centrifugation and washing, the DNA pellet is dissolved in 30 μl water. […] Individual clones that grew after the sort and selection procedure are expanded and one clone is finally selected based on the level of S1P4 mRNA expression determined by TaqMan quantitative PCR analysis.
Membrane proteins are prepared from wild type CHO-K1 and the CHO cell clones expressing human S1P4. […] The protein concentration is determined using the Bio Rad Protein Assay and human IgG as standard. […]

NC(CNC(=O)c1cc2c(-c3ccccc3Cc3ccccc3)cccc2[nH]1)C(=O)O (stereo not shown) [Example 2]
EC50: 0.25 µM
